We go through 8 molecules from US10322188B2, “Cell-penetrating drug carrier and the application thereof” (National Central University, priority 2014, dated 2019).

Ends that are not written are not given here.

Series [1] addresses T1, MMP-2 (Homo sapiens, UniProt P08253).
T1 sequence (P08253 110-660): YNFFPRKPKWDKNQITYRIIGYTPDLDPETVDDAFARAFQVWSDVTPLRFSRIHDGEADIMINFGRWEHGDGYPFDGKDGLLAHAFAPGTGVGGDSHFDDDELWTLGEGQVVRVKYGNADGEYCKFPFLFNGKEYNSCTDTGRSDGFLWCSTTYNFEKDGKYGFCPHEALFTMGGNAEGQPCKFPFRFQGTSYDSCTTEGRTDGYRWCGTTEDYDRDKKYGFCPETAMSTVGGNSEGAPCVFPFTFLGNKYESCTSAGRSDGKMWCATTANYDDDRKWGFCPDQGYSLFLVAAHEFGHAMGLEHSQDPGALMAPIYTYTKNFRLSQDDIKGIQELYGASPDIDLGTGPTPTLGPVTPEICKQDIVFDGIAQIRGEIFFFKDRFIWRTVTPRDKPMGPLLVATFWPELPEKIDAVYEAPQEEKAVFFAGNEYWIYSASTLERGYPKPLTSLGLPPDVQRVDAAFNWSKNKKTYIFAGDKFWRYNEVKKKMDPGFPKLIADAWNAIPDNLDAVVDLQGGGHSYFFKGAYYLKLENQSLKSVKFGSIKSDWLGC
Nature of the series: Digestion of recognizable sequence by MMP-2, followed by RPC / RP-HPLC. The class given is biochemical. Here is the method:
In the experiment of employing MMP-2 to cut/digest recognizable sequence, after individually adding tryptophan (abbreviated symbol as “W”) at the C-terminus and the N-terminus of the recognizable sequence, the digestion of the recognizable sequence by MMP-2 can be followed by the character absorption wave length at 280 nm.
FIG. 4A to FIG. 4C respectively presents the reversed 1phase chromatography (RPC) analysis of 100 µM P1, P2, and P4 in Table 1 digested by 1 g/mL MMP-2. The gradient elution is 0-100% ACN, 50 min. […] Another recognizable sequence P4 with the same length as P3 and different amino acid fragments is designed.
The ILPW fragment from P4 digestion and the first four amino acid fragment of IL-R57F89 are the same. There are two MMP-2 cut-able sequences, GPLSI-P17 and GPLGI-P17, designed with the sequence individually as GPLS-ILPWRWRFFPWRR (SEQ ID NO: 11) and GPLG-ILPWRWRFFPWRR (SEQ ID NO: 10). The RP-HPLC analysis of GPLSI-P17 and GPLGI-P17 digested by MMP-2 are shown as FIG. 5A and FIG. 5B. It should be noticed that we ensure the peak of IL-R57F89 before the digestion of GPLSI-P17 and GPLGI-P17. […] Therefore, GPLSI-P17 and GPLGI-P17 can be employed as the recognizable sequence of this application.
Including providing protection to recognizable sequence-CPP, proper PEG length will not impact the anchoring of the target cell to the recognizable sequence. Therefore, we try to finger out the effect of the PEG length to the following anchoring. PEG5K-GPLSI-P17 and PEG5K-GPLGI-P17 are individually dissolved in pH 7.4 HEPES buffer. MMP-2 is added into the above solutions and the final concentration is about 1 g/mL. The solutions are independently reacted at 37° C. for 24 hours. The reaction results are analyzed by RPC and shown as FIG. 8A and FIG. 8B.

In series [2] the test system is HepG2 cells. Nature of the series: Cell viability of HepG2 cells incubated with peptide, DOX or a mixture for 1 hour and 6 hours. The class given is cell-based. To be noted: 25 µM peptide, 25 µM DOX or mixed solution of both; incubating for 1 hour and 6 hours; FIG. 1A. Here is the method:
In this example, HepG2 cells are individually incubated in 25 µM peptide solution, 25 µM DOX, and a mixed solution of 25 µM DOX and 25 µM peptide. And the cell viability of the mentioned HepG2 cells is followed after incubating for 1 hour and 6 hours.

Series [3] has as its system HepG2 cells. In words: DOX fluorescence intensity in HepG2 cytoplasm (intracellular translocation). The class given is cell-based. Conditions: incubating time from 1 hour to 6 hours; FIG. 1B. As for the experimental part: Besides, in order to ensure whether the cell-penetrating peptide is helpful to the translocation of DOX, after incubating for 1 to 6 hours, the DOX fluorescence intensity of in HepG2 tumor cell cytoplasm is measured and shown as FIG. 1B.
(§1) In this example, HepG2 cells are individually incubated in DOX, DOX and IL-R57F89 mixed solution, and IL-R57F89-DOX for 1 hour, and measured the fluorescence intensity as FIG. 3.

Series [4] relates to HepG2 cell. Nature of the series: Cytotoxicity test on HepG2 cells, 24 hours. It counts as cell-based. To be noted: acted on HepG2 cell for 24 hour; FIG. 10. As for the experimental part: as §1
DOX and PEG5K-GPLGI-P17-DOX are processed cytotoxicity test.

The subject of series [5] is trypsin. In words: Protease stability test: trypsin digestion followed by RPC-UV280. It counts as in vitro ADME. The text has this:
It can be expected that drug carrier in vivo circulation will face to many bio-enzymes, wherein those bio-enzymes will cut the drug carrier. Before designing proper protection to those bio-enzymes, we hope to finger out the cutting result of the recognizable sequence-CPP (cell-penetrating peptide) by bio-enzymes. In this example, trypsin is employed as the bio-enzyme. Trypsin is a protease with selectivity, especially for cutting the carboxyl side of arginine (R) or lysine (K) of protein or peptide. In this example, when CPP is IL-R57F89, there are four arginine fragments in CPP being able to be cut by trypsin. Those four arginine fragments are R5, R7, R12, and R13.
FIG. 6A and FIG. 6B are respectively the RPC-UV280 spectra of IL-R57F89 and GPLSI-P17 digested by 0.1 g/mL trypsin. The gradient elution is 20-70% ACN, 5-30 min. In the spectra, there are sampling analysis results of 5, 10, 20, 30, 60, 120, and 240 min from top to bottom. […] According to this example, it can be noticed that it has to design a proper structure for keeping the recognizable sequence-CPP of drug carrier from cut by bio-enzyme(s) before the drug carrier achieving the target cell.
Subsequently, it is important to find out proper PEG length so that the PEG can provide protection to the recognizable sequence-CPP and the PEG will not impact the anchoring of the target cell to the recognizable sequence. FIG. 7B presents the trypsin digestion results of IL-R57F89, GPLSI-P17, PEG1K-GPLSI-P17, PEG2K-GPLSI-P17, PEG5K-GPLSI-P17, and PEG5K-GPLGI-P17. […] PEG1K-GPLSI-P17 is digested about 80% after 2 hours. After digesting for 4 hours, PEG2K-GPLSI-P17 and PEGSK-GPLSI-P17 are individually digested about 50% and 45%. It can be ensured that the PEG with proper length can efficiently keep the recognizable sequence-CPP from digested by bio-enzyme. And, when adjusting the PEG length with the length of the recognizable sequence-CPP, the protection of the PEG to the recognizable sequence-CPP can be optimized. For example, to those general recognizable sequence-CPP now, the proper length of PEG is about 1000-25000 Da.

[6] abbreviates: after 24 hours, FIG. 4C, 5A, 5B.
The mark [7] stands for this setting: 0.1 g/mL trypsin, after 2 hours, FIG. 6A, 6B.
Where [8] appears, read: 100 µM peptide, 1 g/mL MMP-2, after digesting for 2 hours, FIG. 4A, 4B.

Turning to P4: MMP-2 cut-able sequence WGPLGILPW, the “digestion by MMP-2” value in series [1] (setting [6]) is on record as “totally digested”. For `COc1cccc2c1C(=O)c1c(O)c3c(c(O)c1C2=O)C[C@@](O)(C(=O)CO)C[C@@H]3O[C@H]1C[C@H](N)[C@H](O)[C@H](C)O1` [DOX, doxorubicin], the “cytotoxicity to HepG2 cell (cell viability)” value (from here on “cytotoxicity to HepG2 cell”) in series [2] is “do not present obvious cytotoxicity”. The “DOX fluorescence intensity in HepG2 tumor cell cytoplasm, change with incubating time” value in series [3] is “increased”. In addition, the “cell viability of HepG2” value in series [4] is “efficiently decrease the cell viability”. With GPLSILPWRWRFFPWRR [GPLSI-P17], the digestion by trypsin entry in series [5] (setting [7]) is given as “almost digested completely”; in series [5] (after about 1 hour, FIG. 7B) it was “almost digested completely”. For P1: MMP-2 cut-able sequence WGPLGIAGQW, the “digestion by MMP-2” value in series [1] (setting [8]) is on record as “still can be digested by MMP-2”. Regarding `CC[C@H](C)[C@H](N)C(=O)N[C@@H](CC(C)C)C(=O)N1CCC[C@H]1C(=O)N[C@@H](Cc1c[nH]c2ccccc12)C(=O)N[C@@H](CCCCN)C(=O)N[C@@H](Cc1c[nH]c2ccccc12)C(=O)N1CCC[C@H]1C(=O)N[C@@H](Cc1c[nH]c2ccccc12)C(=O)N[C@@H](Cc1c[nH]c2ccccc12)C(=O)N1CCC[C@H]1C(=O)N[C@@H](Cc1c[nH]c2ccccc12)C(=O)N[C@@H](CCCNC(=N)N)C(=O)N[C@@H](CCCNC(=N)N)C(=O)O` [IL, Indolicidin], the “cytotoxicity to HepG2 cell” value in series [2] was “do not present obvious cytotoxicity”. As for P2: MMP-2 cut-able sequence WGPLGIAGW, the “digestion by MMP-2” value in series [1] (setting [8]) is “totally digested”. As for “GPLGI-P17: recognizable sequence-CPP GPLG-ILPWRWRFFPWRR (SEQ ID NO: 10) (GPLGILPWRWRFFPWRR; the sequence is synthesized)”, the “digestion by MMP-2” value in series [1] (setting [6]) is “totally digested”. As for ILPWRWRFFPWRR [IL-R57F89], in series [2], the “cytotoxicity to HepG2 cell” value was “do not present obvious cytotoxicity”. For the same molecule, the digestion by trypsin entry in series [5] (setting [7]) is reported as “almost digested completely”; in series [5] (after about 1 hour, FIG. 7B), “almost digested completely”.
